Laboratory results published in PubChem BioAssay AID1259407 (Chemical Carcinogenesis Research Information System (CCRIS), 2018).
Calls of active or inactive are those of the source. The rule behind the calls is not given here.

Tested on: CCRIS mutagenicity, Ames/micronucleus/aberration tests
Assay: CCRIS mutagenicity studies
[1] = Test System: AMES SALMONELLA TYPHIMURIUM, Strain/Indicator: TA98, Metabolic Activation: NONE, Method: PREINCUBATION
[2] = Test System: AMES SALMONELLA TYPHIMURIUM, Strain/Indicator: TA98, Metabolic Activation: NONE, Method: STANDARD PLATE
[3] = Test System: AMES SALMONELLA TYPHIMURIUM, Strain/Indicator: TA98, Metabolic Activation: RAT, LIVER, S-9, AROCLOR 1254, Method: STANDARD PLATE
[4] = Test System: AMES SALMONELLA TYPHIMURIUM, Strain/Indicator: TA100, Metabolic Activation: NONE, Method: STANDARD PLATE
[5] = Test System: AMES SALMONELLA TYPHIMURIUM, Strain/Indicator: TA100, Metabolic Activation: RAT, LIVER, S-9, AROCLOR 1254, Method: STANDARD PLATE
[6] = Test System: AMES SALMONELLA TYPHIMURIUM, Strain/Indicator: TA1535, Metabolic Activation: NONE, Method: STANDARD PLATE
[7] = Test System: AMES SALMONELLA TYPHIMURIUM, Strain/Indicator: TA100, Metabolic Activation: NONE, Method: PREINCUBATION

SMILES: O=C1c2ccccc2-c2cc([N+](=O)[O-])ccc21
- mutagenic call (Test System: AMES SALMONELLA TYPHIMURIUM, Strain/Indicator: TA98 (1,8-DNP6), Metabolic Activation: NONE, Method: PREINCUBATION): active; positive
- mutagenic call (Test System: AMES SALMONELLA TYPHIMURIUM, Strain/Indicator: TA98(NR), Metabolic Activation: NONE, Method: PREINCUBATION): active; positive
- mutagenic call (Test System: AMES SALMONELLA TYPHIMURIUM, Strain/Indicator: TA98(NR), Metabolic Activation: RAT LIVER S-9 (10%), Method: PREINCUBATION): active; positive
- mutagenic call (Test System: AMES SALMONELLA TYPHIMURIUM, Strain/Indicator: TA98(NR), Metabolic Activation: RAT LIVER S-9, 3-METHYLCHOLANTHRENE (10%), Method: PREINCUBATION): active; positive
- mutagenic call (Test System: AMES SALMONELLA TYPHIMURIUM, Strain/Indicator: TA98(NR), Metabolic Activation: RAT LIVER S-9, BETA-NAPHTHAFLAVONE (10%), Method: PREINCUBATION): active; positive
- mutagenic call (Test System: AMES SALMONELLA TYPHIMURIUM, Strain/Indicator: TA98(NR), Metabolic Activation: RAT LIVER S-9, PCB (10%), Method: PREINCUBATION): active; positive
- mutagenic call (Test System: AMES SALMONELLA TYPHIMURIUM, Strain/Indicator: TA98(NR), Metabolic Activation: RAT LIVER S-9, PHENOBARBITAL (10%), Method: PREINCUBATION): active; positive
- mutagenic call [1]: active; positive
- mutagenic call [2]: active; positive
- mutagenic call [3]: active; positive
- mutagenic call [4]: inactive; negative
- mutagenic call [5]: inactive; negative
- mutagenic call (Test System: AMES SALMONELLA TYPHIMURIUM, Strain/Indicator: TA7001, Metabolic Activation: NONE, Method: PREINCUBATION): inactive; negative
- mutagenic call (Test System: AMES SALMONELLA TYPHIMURIUM, Strain/Indicator: TA7002, Metabolic Activation: NONE, Method: PREINCUBATION): active; positive
- mutagenic call (Test System: AMES SALMONELLA TYPHIMURIUM, Strain/Indicator: TA7003, Metabolic Activation: NONE, Method: PREINCUBATION): active; positive
- mutagenic call (Test System: AMES SALMONELLA TYPHIMURIUM, Strain/Indicator: TA7004, Metabolic Activation: NONE, Method: PREINCUBATION): active; positive
- mutagenic call (Test System: AMES SALMONELLA TYPHIMURIUM, Strain/Indicator: TA7005, Metabolic Activation: NONE, Method: PREINCUBATION): active; positive
- mutagenic call (Test System: AMES SALMONELLA TYPHIMURIUM, Strain/Indicator: TA7006, Metabolic Activation: NONE, Method: PREINCUBATION): active; positive

SMILES: C=C(C)C(=O)OCCCCCOC(=O)C(=C)C
- mutagenic call [2]: inactive; negative
- mutagenic call [3]: inactive; negative
- mutagenic call (Test System: AMES SALMONELLA TYPHIMURIUM, Strain/Indicator: TA98, Metabolic Activation: RAT, LIVER, S-9, SODIUM PHENOBARBITAL, Method: STANDARD PLATE): inactive; negative
- mutagenic call [4]: inactive; negative
- mutagenic call [5]: inactive; negative
- mutagenic call (Test System: AMES SALMONELLA TYPHIMURIUM, Strain/Indicator: TA100, Metabolic Activation: RAT, LIVER, S-9, SODIUM PHENOBARBITAL, Method: STANDARD PLATE): inactive; negative
- mutagenic call [6]: inactive; negative
- mutagenic call (Test System: AMES SALMONELLA TYPHIMURIUM, Strain/Indicator: TA1535, Metabolic Activation: RAT, LIVER, S-9, AROCLOR 1254, Method: STANDARD PLATE): inactive; negative
- mutagenic call (Test System: AMES SALMONELLA TYPHIMURIUM, Strain/Indicator: TA1535, Metabolic Activation: RAT, LIVER, S-9, SODIUM PHENOBARBITAL, Method: STANDARD PLATE): inactive; negative
- mutagenic call (Test System: AMES SALMONELLA TYPHIMURIUM, Strain/Indicator: TA1537, Metabolic Activation: NONE, Method: STANDARD PLATE): inactive; negative
- mutagenic call (Test System: AMES SALMONELLA TYPHIMURIUM, Strain/Indicator: TA1537, Metabolic Activation: RAT, LIVER, S-9, AROCLOR 1254, Method: STANDARD PLATE): inactive; negative
- mutagenic call (Test System: AMES SALMONELLA TYPHIMURIUM, Strain/Indicator: TA1537, Metabolic Activation: RAT, LIVER, S-9, SODIUM PHENOBARBITAL, Method: STANDARD PLATE): inactive; negative
- mutagenic call (Test System: AMES SALMONELLA TYPHIMURIUM, Strain/Indicator: TA1538, Metabolic Activation: NONE, Method: STANDARD PLATE): inactive; negative
- mutagenic call (Test System: AMES SALMONELLA TYPHIMURIUM, Strain/Indicator: TA1538, Metabolic Activation: RAT, LIVER, S-9, AROCLOR 1254, Method: STANDARD PLATE): inactive; negative
- mutagenic call (Test System: AMES SALMONELLA TYPHIMURIUM, Strain/Indicator: TA1538, Metabolic Activation: RAT, LIVER, S-9, SODIUM PHENOBARBITAL, Method: STANDARD PLATE): inactive; negative

SMILES: COc1ccc2c(c1)-c1c(OC)c(OC)cc3c1C(C2=O)N(C)CC3 (configuration not stated)
- mutagenic call (Test System: AMES SALMONELLA TYPHIMURIUM, Strain/Indicator: TA100, Metabolic Activation: RAT, LIVER, S-9, PHENOBARBITAL AND BETA-NAPHTHOFLAVONE, Method: PREINCUBATION): inactive; negative

SMILES: NCCc1c[nH]c2ccccc12
- mutagenic call (Test System: AMES SALMONELLA TYPHIMURIUM, Strain/Indicator: TA97A, Metabolic Activation: NONE, Method: STANDARD PLATE): inactive; negative
- mutagenic call (Test System: AMES SALMONELLA TYPHIMURIUM, Strain/Indicator: TA97A, Metabolic Activation: RAT LIVER S-9, PHENOBARBITOL/BETA-NAPHTHOFLAVONE, Method: STANDARD PLATE): inactive; negative
- mutagenic call [2]: inactive; negative
- mutagenic call (Test System: AMES SALMONELLA TYPHIMURIUM, Strain/Indicator: TA98, Metabolic Activation: RAT LIVER S-9, PHENOBARBITOL/BETA-NAPHTHOFLAVONE, Method: STANDARD PLATE): inactive; negative
- mutagenic call [7]: inactive; negative
- mutagenic call [4]: inactive; negative
- mutagenic call (Test System: AMES SALMONELLA TYPHIMURIUM, Strain/Indicator: TA100, Metabolic Activation: RAT LIVER S-9, PHENOBARBITOL/BETA-NAPHTHOFLAVONE, Method: STANDARD PLATE): inactive; negative
- mutagenic call [6]: inactive; negative
- mutagenic call (Test System: AMES SALMONELLA TYPHIMURIUM, Strain/Indicator: TA1535, Metabolic Activation: RAT LIVER S-9, PHENOBARBITOL/BETA-NAPHTHOFLAVONE, Method: STANDARD PLATE): inactive; negative
- mutagenic call (Test System: E.COLI, Strain/Indicator: WP2/UVRA, Metabolic Activation: NONE, Method: STANDARD PLATE): inactive; negative
- mutagenic call (Test System: E.COLI, Strain/Indicator: WP2/UVRA, Metabolic Activation: RAT LIVER S-9, PHENOBARBITOL/BETA-NAPHTHOFLAVONE, Method: STANDARD PLATE): inactive; negative

SMILES: CC(=O)N(O)c1ccc(O)cc1
- mutagenic call (End Point: IN VITRO MICRONUCLEUS, Test System: RAT KIDNEY FIBROBLAST NRK-49F, Metabolic Activation: NONE): active; positive

SMILES: O=C(Cl)c1ccccc1Cl
- mutagenic call [1]: inactive; negative
- mutagenic call (Test System: AMES SALMONELLA TYPHIMURIUM, Strain/Indicator: TA98, Metabolic Activation: RAT LIVER S-9, PCB, Method: PREINCUBATION): active; positive
- mutagenic call [7]: active; positive
- mutagenic call (Test System: AMES SALMONELLA TYPHIMURIUM, Strain/Indicator: TA100, Metabolic Activation: RAT LIVER S-9, PCB, Method: PREINCUBATION): active; positive
- mutagenic call (Test System: AMES SALMONELLA TYPHIMURIUM, Strain/Indicator: TA104, Metabolic Activation: NONE, Method: PREINCUBATION): active; positive
- mutagenic call (Test System: AMES SALMONELLA TYPHIMURIUM, Strain/Indicator: TA104, Metabolic Activation: RAT LIVER S-9 PCB, Method: PREINCUBATION): active; positive
- mutagenic call (Test System: E.COLI, Strain/Indicator: WP2 UVRA, Metabolic Activation: NONE, Method: PREINCUBATION): inactive; negative
- mutagenic call (Test System: E.COLI, Strain/Indicator: WP2 UVRA, Metabolic Activation: RAT LIVER S-9, PCB, Method: PREINCUBATION): active; positive

SMILES: ClC[C@H]1CO1
- mutagenic call [7]: active; positive
- mutagenic call [4]: active; positive
- mutagenic call (Test System: AMES SALMONELLA TYPHIMURIUM, Strain/Indicator: TA100, Metabolic Activation: RAT, LIVER, S-9, PCB, Method: PREINCUBATION): active; positive
